The text below walks through data of ChEMBL document CHEMBL3421530, “Azepinone-Containing Tetrapeptide Analogues of Melanotropin Lead to Selective hMC4R Agonists and hMC5R Antagonist” (ACS Med Chem Lett, 2015).

The target of series [1] is T1, Melanocortin receptor 3 (Homo sapiens, UniProt P41968). Kind of series: Activity at human MC3 receptor expressed in HEK293 cells assessed as cAMP accumulation by luminescence counter. It is filed as functional, cell-based. On the technique in general: Cyclic AMP is a second messenger, typically raised through Gs and lowered through Gi signalling.
Series [2] has as its target T2, Melanocortin receptor 5 (Homo sapiens, UniProt P33032). The series can be described thus: Displacement of [125I]-NDP-alpha-MSH from human MC5 receptor expressed in HEK293 cells at 10 uM by gamma counting analysis. Format: cell-based.
In series [3] the target is T3, Melanocyte-stimulating hormone receptor (Homo sapiens, UniProt Q01726). The series can be described thus: Displacement of [125I]-NDP-alpha-MSH from human MC1 receptor expressed in HEK293 cells by gamma counting analysis. It is filed as cell-based.
Target sequence in this assay (Q01726 whole entry): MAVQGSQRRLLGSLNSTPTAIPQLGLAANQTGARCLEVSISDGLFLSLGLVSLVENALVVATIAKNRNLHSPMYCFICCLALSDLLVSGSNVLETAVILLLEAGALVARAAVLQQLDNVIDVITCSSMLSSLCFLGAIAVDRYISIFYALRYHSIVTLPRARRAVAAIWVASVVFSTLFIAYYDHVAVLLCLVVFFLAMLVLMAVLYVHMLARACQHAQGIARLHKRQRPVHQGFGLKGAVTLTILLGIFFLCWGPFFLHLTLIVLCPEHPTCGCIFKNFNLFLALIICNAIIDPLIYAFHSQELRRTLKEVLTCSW
Series [4] addresses T3, Melanocyte-stimulating hormone receptor. Kind of series: Activity at human MC1 receptor expressed in HEK293 cells assessed as cAMP accumulation at 10 uM by luminescence counter relative to MT-II. It is filed as functional, cell-based.
Target sequence in this assay (Q01726 whole entry, looked up): as the sequence (Q01726 whole entry) above
Series [5] concerns the target T2, Melanocortin receptor 5. The series can be described thus: Antagonist activity at human MC5 receptor expressed in HEK293 cells assessed as cAMP accumulation by luminescence counter. Format: functional, cell-based.
Series [6] concerns the target T3, Melanocyte-stimulating hormone receptor. The series can be described thus: Activity at human MC1 receptor expressed in HEK293 cells assessed as cAMP accumulation by luminescence counter. It is filed as functional, cell-based.
Target sequence in this assay (Q01726 whole entry): as above
Series [7] addresses T2, Melanocortin receptor 5. The series can be described thus: Antagonist activity at human MC5 receptor expressed in HEK293 cells assessed as cAMP accumulation at 10 uM by luminescence counter relative to MT-II. It is filed as functional, cell-based. Also on record: scale not given: the % may be the effect or the level left.
Series [8] addresses T1, Melanocortin receptor 3. The series can be described thus: Activity at human MC3 receptor expressed in HEK293 cells assessed as cAMP accumulation at 10 uM by luminescence counter relative to MT-II. Format: functional, cell-based.
Series [9] concerns the target T1, Melanocortin receptor 3. The series can be described thus: Displacement of [125I]-NDP-alpha-MSH from human MC3 receptor expressed in HEK293 cells at 10 uM by gamma counting analysis. Format: cell-based. (In general: In a radioligand displacement assay an active substance lowers the binding of a labelled ligand.)
Series [10] concerns the target T4, Melanocortin receptor 4 (Homo sapiens, UniProt P32245). The series can be described thus: Agonist activity at human MC4 receptor expressed in HEK293 cells assessed as cAMP accumulation by luminescence counter. Format: functional, cell-based.
Series [11] addresses T4, Melanocortin receptor 4. Kind of series: Displacement of [125I]-NDP-alpha-MSH from human MC4 receptor expressed in HEK293 cells by gamma counting analysis. Format: cell-based.
In series [12] the target is T4, Melanocortin receptor 4. Kind of series: Displacement of [125I]-NDP-alpha-MSH from human MC4 receptor expressed in HEK293 cells at 10 uM by gamma counting analysis. Format: cell-based.
Series [13] in a line: Retention time of the compound. Format: physicochemical.
Series [14] has as its target T4, Melanocortin receptor 4. The series can be described thus: Agonist activity at human MC4 receptor expressed in HEK293 cells assessed as cAMP accumulation at 10 uM by luminescence counter relative to MT-II. Format: functional, cell-based.
In series [15] the target is T2, Melanocortin receptor 5. The series can be described thus: Displacement of [125I]-NDP-alpha-MSH from human MC5 receptor expressed in HEK293 cells by gamma counting analysis. Format: cell-based.
The target of series [16] is T1, Melanocortin receptor 3. Kind of series: Displacement of [125I]-NDP-alpha-MSH from human MC3 receptor expressed in HEK293 cells by gamma counting analysis. Format: cell-based.
Series [17] has as its target T3, Melanocyte-stimulating hormone receptor. Kind of series: Displacement of [125I]-NDP-alpha-MSH from human MC1 receptor expressed in HEK293 cells at 10 uM by gamma counting analysis. Format: cell-based.
Target sequence in this assay (Q01726 whole entry, looked up): as the sequence (Q01726 whole entry) above

T1 sequence (P41968 whole entry): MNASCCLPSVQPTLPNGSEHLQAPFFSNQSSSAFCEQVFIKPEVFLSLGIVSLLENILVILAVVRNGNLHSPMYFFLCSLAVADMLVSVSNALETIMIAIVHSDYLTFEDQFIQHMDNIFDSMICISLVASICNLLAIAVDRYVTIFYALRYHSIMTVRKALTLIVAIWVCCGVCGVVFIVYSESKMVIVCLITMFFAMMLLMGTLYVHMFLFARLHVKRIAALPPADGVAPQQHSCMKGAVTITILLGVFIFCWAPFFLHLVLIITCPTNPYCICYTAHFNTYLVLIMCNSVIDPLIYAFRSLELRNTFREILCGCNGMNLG
T2 sequence (P33032 whole entry): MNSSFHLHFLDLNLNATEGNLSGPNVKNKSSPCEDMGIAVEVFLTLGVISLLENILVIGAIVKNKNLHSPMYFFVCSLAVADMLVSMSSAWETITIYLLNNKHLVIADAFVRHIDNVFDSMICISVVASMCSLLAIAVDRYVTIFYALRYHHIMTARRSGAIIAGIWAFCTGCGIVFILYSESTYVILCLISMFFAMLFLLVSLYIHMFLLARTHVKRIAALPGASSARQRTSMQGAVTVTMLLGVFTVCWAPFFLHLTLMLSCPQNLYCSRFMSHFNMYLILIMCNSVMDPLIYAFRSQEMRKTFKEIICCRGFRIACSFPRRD
T4 sequence (P32245 whole entry): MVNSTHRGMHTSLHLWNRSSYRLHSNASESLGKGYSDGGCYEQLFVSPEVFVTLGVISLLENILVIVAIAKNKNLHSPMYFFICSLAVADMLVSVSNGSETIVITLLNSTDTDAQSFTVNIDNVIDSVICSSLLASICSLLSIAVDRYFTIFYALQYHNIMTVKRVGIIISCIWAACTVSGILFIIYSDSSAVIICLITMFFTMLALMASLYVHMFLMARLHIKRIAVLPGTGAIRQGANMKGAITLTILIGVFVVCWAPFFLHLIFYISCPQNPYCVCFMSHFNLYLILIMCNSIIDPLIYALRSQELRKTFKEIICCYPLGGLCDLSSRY

Regarding `CC(=O)N[C@H]1Cn2nncc2CN([C@H](Cc2ccccc2)C(=O)N[C@@H](CCCNC(=N)N)C(=O)N[C@@H](Cc2c[nH]c3ccccc23)C(N)=O)C1=O`, the EC50 (in general, the midpoint of the concentration-response curve) was 0.055 µM in [1] (read-out: EC50), “Not Active” in series [5] (hek293), 0.75 µM in [6] (read-out: EC50) and 0.203 µM in [10]. Also, the %max in series [2] is 70%; in series [9], 55%; in [12], 80%; in series [17] it was 60%. The IC50 – broadly, the midpoint of a concentration-inhibition curve – in series [3] is 4.54 µM; in series [11], 0.2 µM; in [15] it was 0.137 µM; in series [16] (read-out: IC50), 1 µM. For the same molecule, the Activity in [4] worked out at 100%; in series [7], 0%; in [8] it was 20%; in series [14], 80%. The molecule further showed a Retention_time in series [13] of 10.43 min.
As for `CC(=O)N[C@H]1Cc2c([nH]c3ccccc23)CN([C@H](Cc2ccc(F)cc2)C(=O)N[C@@H](CCCNC(=N)N)C(=O)N[C@@H](Cc2c[nH]c3ccccc23)C(N)=O)C1=O`, the EC50 entry in series [1] (hek293) was “Not Active”; in [5] (read-out: EC50) it was 4.11 µM; in series [6] (read-out: EC50), 0.226 µM; in series [10], 0.013 µM. Besides, the %max came to 80% in [2], 50% in series [9], 80% in series [12] and 40% in [17]. Besides, the IC50 was 0.258 µM in series [3], 0.0065 µM in series [11], 0.167 µM in series [15] and 5 µM in series [16] (read-out: IC50). For the same molecule, the Activity in [4] came to 50%; in [7], 50%; in series [8] it was 0%; in [14], 100%. This molecule also came in with a Retention_time in [13] of 13.94 min.
Consider `CC(=O)N[C@H]1Cc2c([nH]c3ccccc23)CN([C@H](Cc2ccc(Br)cc2)C(=O)N[C@@H](CCCNC(=N)N)C(=O)N[C@@H](Cc2c[nH]c3ccccc23)C(N)=O)C1=O`, for which the concentration for a half-maximal effect (EC50) in series [1] (read-out: EC50) is 2.44 µM; in series [5] (hek293) it was “Not Active”; in [6] (read-out: EC50) it was 0.7 µM; in series [10], 0.0003 µM. Further, the %max worked out at 100% in [2], 100% in series [9], 100% in series [12] and 80% in series [17]. For the same molecule, the half-inhibitory concentration (IC50) in series [3] came to 0.3 µM; in [11], 0.2 µM; in series [15], 0.0703 µM; in series [16] (read-out: IC50), 0.1 µM. The Activity worked out at 100% in series [4], 0% in series [7], 50% in series [8] and 80% in series [14]. Also, the Retention_time in [13] worked out at 14.85 min.
In the case of `CC(=O)N[C@H]1Cc2c([nH]c3ccccc23)CN([C@H](Cc2ccccc2)C(=O)N[C@@H](CCCNC(=N)N)C(=O)N[C@@H](Cc2c[nH]c3ccccc23)C(N)=O)C1=O`, the half-maximal effective concentration (EC50) was 0.052 µM in [1] (read-out: EC50), “Not Active” in series [5] (hek293), “Not Active” in series [6] (hek293) and 0.0003 µM in series [10]. Further, the %max worked out at 80% in series [2], 50% in series [12] and 50% in [17]. In addition, the half-inhibitory concentration (IC50) in [3] was 1.35 µM; in series [11], 0.447 µM; in series [15] it was 0.636 µM; in [16] (hek293) it was “Not Active”. Further, the Activity in [4] was 0%; in series [7] it was 0%; in series [8] it was 20%; in series [14], 51%. Further, in series [13], the Retention_time is 13.05 min.
In the case of `CC(=O)N[C@H]1Cc2ccccc2CN([C@H](Cc2ccccc2)C(=O)N[C@@H](CCCNC(=N)N)C(=O)N[C@@H](Cc2c[nH]c3ccccc23)C(N)=O)C1=O`, the EC50 in series [1] (read-out: EC50) is 0.059 µM; in [5] (hek293), “Not Active”; in series [6] (read-out: EC50), 1 µM; in series [10], 0.227 µM. Also, the %max in [2] came out at 75%; in [9], 59%; in series [12] it was 80%; in series [17], 80%. Moreover, the IC50 in series [3] is 0.594 µM; in series [11] it was 0.22 µM; in [15], 0.0373 µM; in series [16] (read-out: IC50), over 2 µM. The Activity in series [4] stood at 70%; in series [7], 0%; in series [8] it was 40%; in series [14], 80%. Further, the Retention_time in series [13] is listed as 13.35 min.
